Results: ChEMBL document CHEMBL3727342, “Compounds and methods for kinase modulation, and indications therefor” (2012)
pIC50: −log10 of the molar value.

Key:
[1] = target: Serine/threonine-protein kinase B-raf (Homo sapiens, UniProt P15056); test: Inhibition of N-terminal GST-tagged human recombinant B-Raf (416 to end residues) using biotin-MEK1 substrate incubated for 1 hr
[2] = target: Mast/stem cell growth factor receptor Kit (Homo sapiens, UniProt P10721); test: Inhibition of Kit (unknown origin) expressed in Escherichia coli
Sequence of Mast/stem cell growth factor receptor Kit (P10721 whole entry): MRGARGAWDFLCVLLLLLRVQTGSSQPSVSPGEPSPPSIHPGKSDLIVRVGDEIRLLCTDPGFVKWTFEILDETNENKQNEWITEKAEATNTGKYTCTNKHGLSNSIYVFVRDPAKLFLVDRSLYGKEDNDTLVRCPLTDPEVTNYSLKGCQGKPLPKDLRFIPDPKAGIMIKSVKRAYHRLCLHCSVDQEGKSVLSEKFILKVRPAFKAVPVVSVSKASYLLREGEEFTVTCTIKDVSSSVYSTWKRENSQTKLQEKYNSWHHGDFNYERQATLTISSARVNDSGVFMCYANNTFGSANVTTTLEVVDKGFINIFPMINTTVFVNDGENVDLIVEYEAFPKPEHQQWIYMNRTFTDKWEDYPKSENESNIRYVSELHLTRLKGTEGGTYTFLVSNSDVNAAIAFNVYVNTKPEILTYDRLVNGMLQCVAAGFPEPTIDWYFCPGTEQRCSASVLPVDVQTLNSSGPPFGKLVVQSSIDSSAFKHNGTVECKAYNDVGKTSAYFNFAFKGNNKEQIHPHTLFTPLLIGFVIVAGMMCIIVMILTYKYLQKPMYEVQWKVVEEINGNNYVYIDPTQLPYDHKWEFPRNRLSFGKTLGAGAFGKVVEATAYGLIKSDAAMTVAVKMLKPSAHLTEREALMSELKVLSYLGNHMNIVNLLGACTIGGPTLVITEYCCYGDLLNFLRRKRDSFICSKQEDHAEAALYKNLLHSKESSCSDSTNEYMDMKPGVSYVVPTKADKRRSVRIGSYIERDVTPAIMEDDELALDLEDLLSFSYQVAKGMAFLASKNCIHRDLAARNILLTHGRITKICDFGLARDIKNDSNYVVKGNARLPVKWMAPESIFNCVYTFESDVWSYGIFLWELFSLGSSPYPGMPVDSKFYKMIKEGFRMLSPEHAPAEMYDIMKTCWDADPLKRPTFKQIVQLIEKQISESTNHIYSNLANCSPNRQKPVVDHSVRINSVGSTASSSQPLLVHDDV

[3] = target: RAF proto-oncogene serine/threonine-protein kinase (Homo sapiens, UniProt P04049); test: Inhibition of human C-raf using biotin-MEK1 substrate incubated for 1 hr
Sequence of RAF proto-oncogene serine/threonine-protein kinase (P04049 whole entry): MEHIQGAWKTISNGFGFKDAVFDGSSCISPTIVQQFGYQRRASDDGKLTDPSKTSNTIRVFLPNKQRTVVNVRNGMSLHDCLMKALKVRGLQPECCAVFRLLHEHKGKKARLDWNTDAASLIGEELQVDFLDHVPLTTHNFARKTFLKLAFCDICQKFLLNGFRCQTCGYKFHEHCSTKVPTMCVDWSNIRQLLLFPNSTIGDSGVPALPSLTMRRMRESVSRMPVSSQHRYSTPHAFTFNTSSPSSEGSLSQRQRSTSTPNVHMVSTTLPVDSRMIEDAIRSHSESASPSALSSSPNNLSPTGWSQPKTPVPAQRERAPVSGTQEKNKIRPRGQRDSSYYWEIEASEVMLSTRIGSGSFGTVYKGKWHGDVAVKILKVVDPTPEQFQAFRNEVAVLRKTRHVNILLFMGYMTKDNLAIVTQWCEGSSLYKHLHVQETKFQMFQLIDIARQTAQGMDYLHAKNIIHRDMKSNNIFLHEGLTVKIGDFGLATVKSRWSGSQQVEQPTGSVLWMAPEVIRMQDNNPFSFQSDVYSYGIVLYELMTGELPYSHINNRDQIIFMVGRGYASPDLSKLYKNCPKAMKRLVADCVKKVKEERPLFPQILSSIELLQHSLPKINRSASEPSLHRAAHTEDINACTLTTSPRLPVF

[4] = target: Vascular endothelial growth factor receptor 2 (Homo sapiens, UniProt P35968); test: Inhibition of KDR (unknown origin) by FRET assay
Sequence of Vascular endothelial growth factor receptor 2 (P35968 whole entry): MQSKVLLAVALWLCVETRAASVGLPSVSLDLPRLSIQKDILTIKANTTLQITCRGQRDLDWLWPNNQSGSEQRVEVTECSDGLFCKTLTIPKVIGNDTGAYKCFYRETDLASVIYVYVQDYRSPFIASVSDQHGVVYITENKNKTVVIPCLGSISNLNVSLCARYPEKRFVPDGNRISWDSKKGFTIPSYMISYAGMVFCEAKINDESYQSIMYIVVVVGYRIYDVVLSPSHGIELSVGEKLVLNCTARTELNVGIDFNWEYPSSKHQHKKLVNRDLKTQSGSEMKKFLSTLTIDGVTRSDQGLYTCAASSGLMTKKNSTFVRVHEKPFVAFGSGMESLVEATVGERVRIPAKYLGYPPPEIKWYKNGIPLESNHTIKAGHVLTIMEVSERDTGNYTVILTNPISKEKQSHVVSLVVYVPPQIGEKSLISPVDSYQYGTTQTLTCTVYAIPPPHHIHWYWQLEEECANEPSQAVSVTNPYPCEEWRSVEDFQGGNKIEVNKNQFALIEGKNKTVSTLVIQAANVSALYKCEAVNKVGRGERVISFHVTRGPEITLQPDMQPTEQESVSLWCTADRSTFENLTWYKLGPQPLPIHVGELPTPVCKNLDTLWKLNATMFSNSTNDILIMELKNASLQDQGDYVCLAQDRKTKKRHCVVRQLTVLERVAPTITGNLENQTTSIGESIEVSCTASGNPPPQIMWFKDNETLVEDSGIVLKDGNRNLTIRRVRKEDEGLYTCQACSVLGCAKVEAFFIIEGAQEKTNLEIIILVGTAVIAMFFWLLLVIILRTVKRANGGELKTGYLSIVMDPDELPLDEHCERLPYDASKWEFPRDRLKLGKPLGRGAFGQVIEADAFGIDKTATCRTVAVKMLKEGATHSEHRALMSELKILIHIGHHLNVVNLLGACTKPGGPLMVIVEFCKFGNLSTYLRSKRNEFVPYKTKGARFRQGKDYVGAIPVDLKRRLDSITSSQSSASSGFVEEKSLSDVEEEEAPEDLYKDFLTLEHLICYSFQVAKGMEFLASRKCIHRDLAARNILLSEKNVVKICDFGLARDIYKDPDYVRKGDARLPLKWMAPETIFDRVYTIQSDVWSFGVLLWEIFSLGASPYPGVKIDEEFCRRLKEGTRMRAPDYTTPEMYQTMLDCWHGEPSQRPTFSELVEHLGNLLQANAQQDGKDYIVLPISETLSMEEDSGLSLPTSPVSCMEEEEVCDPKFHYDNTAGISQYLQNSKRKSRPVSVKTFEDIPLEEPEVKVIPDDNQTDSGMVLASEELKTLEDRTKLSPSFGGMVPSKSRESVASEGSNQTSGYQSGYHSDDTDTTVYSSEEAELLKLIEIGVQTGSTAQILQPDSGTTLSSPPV

[5] = target: Proto-oncogene tyrosine-protein kinase Src (Homo sapiens, UniProt P12931); test: Inhibition of Src (unknown origin) expressed in Escherichia coli using biotin-(E4Y)3 substrate
Sequence of Proto-oncogene tyrosine-protein kinase Src (P12931 2-536 limits assumed): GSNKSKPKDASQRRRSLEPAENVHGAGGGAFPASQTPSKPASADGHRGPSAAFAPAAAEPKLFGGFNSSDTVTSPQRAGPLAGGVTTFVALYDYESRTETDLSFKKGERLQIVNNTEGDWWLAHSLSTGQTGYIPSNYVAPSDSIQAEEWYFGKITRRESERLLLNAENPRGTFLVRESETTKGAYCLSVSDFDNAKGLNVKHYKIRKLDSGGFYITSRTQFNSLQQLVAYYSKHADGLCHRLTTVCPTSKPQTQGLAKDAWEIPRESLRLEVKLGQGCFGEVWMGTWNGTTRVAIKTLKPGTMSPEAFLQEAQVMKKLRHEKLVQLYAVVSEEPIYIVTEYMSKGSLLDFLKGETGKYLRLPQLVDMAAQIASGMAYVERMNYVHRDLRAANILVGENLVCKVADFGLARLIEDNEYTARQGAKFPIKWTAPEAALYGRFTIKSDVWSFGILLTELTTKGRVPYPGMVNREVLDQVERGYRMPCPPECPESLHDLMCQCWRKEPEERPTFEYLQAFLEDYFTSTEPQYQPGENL

[6] = target: Tyrosine-protein kinase BTK (Homo sapiens, UniProt Q06187); test: Inhibition of Btk (unknown origin) by FRET assay
Sequence of Tyrosine-protein kinase BTK (Q06187 whole entry): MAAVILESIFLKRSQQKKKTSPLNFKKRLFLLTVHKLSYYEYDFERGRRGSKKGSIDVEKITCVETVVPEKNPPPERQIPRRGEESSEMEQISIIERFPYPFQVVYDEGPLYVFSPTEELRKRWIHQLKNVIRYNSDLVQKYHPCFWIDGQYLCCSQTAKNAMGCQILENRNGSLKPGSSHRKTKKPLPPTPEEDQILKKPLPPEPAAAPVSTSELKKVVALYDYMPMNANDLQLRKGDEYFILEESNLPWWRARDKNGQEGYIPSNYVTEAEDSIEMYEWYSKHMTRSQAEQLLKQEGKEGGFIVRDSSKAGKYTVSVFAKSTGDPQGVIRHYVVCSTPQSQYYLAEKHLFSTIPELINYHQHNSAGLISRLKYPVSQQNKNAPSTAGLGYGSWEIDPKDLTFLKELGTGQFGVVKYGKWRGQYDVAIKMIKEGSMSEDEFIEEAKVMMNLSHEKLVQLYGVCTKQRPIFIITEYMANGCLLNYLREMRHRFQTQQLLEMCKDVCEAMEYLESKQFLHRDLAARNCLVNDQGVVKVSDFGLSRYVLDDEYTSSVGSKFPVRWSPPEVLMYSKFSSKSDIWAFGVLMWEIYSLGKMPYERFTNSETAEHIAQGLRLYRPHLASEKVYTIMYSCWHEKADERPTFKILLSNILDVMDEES

Sequence of Serine/threonine-protein kinase B-raf (P15056 whole entry): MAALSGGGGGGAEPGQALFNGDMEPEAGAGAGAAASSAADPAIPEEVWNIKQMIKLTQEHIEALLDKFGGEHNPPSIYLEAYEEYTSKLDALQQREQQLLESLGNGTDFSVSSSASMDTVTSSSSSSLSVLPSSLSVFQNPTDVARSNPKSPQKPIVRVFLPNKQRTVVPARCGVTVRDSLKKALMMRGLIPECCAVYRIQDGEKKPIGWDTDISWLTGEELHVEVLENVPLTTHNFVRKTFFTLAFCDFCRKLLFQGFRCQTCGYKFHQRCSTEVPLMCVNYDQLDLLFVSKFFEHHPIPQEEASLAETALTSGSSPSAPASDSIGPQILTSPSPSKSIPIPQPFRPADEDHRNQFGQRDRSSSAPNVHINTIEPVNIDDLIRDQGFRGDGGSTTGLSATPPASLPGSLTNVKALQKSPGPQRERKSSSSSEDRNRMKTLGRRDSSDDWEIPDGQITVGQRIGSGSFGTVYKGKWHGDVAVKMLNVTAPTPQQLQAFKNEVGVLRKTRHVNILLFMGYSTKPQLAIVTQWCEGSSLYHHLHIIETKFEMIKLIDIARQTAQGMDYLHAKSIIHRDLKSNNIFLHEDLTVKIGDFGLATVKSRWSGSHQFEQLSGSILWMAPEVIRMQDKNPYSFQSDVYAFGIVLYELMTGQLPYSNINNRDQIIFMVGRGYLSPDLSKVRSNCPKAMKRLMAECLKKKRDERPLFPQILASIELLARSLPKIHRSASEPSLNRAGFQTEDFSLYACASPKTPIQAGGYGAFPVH

pIC50 [1]: ≥ 5.00
pIC50 [2]: ≥ 5.00
pIC50 [3]: ≥ 5.00
pIC50 [4]: ≥ 5.00
pIC50 [5]: ≥ 5.00
pIC50 [6]: ≥ 5.00
SMILES: O=C(c1cccc(NS(=O)(=O)c2c(F)cccc2F)c1F)c1c[nH]c2ncncc12
